According to ChEMBL document CHEMBL1165984, “Antiviral and anti-inflammatory diterpenoids from the soft coral Sinularia gyrosa” (J Nat Prod, 2010):
The source made the active and inactive calls. No cut-off for these calls is given here.

How the values were obtained:
Klebsiella aerogenes = test: Antimicrobial activity against Enterobacter aerogenes ATCC 13048 at 100 ug/disk; type: functional, organism-based
Yersinia enterocolitica = test: Antimicrobial activity against Yersinia enterocolitica ATCC 23715 at 100 ug/disk; type: functional, organism-based
RAW264.7 = test: Antiinflammatory activity in mouse RAW264.7 cells assessed as iNOS protein expression level at 10 uM; type: functional
Serratia marcescens = test: Antimicrobial activity against Serratia marcescens ATCC 25419 at 100 ug/disk; type: functional, organism-based
A549 = test: Cytotoxicity against human A549 cells by MTT assay; type: functional, cell-based
Shigella sonnei = test: Antimicrobial activity against Shigella sonnei ATCC 11060 at 100 ug/disk; type: functional, organism-based
Human betaherpesvirus 5 = test: Antiviral activity against HCMV infected in HEL cells assessed as reduction of virus plaque formation; type: functional, organism-based; details: Human betaherpesvirus 5, HEL
Salmonella enteritidis = test: Antimicrobial activity against Salmonella enteritidis ATCC 13076 at 100 ug/disk; type: functional, organism-based; details: Salmonella enterica subsp. enterica serovar Enteritidis
P388 = test: Cytotoxicity against mouse P388 cells by MTT assay; type: functional, cell-based

SMILES	inhibition (Klebsiella aerogenes)	inhibition (Yersinia enterocolitica)	Activity (RAW264.7) [%]	inhibition (Serratia marcescens)	inhibition (A549)	inhibition (Shigella sonnei)	IC50 (Human betaherpesvirus 5) [nM]	inhibition (Salmonella enteritidis)	inhibition (P388)
C=C(CCC=C(C)C)[C@H]1CC[C@@]2(C)[C@H](C1)C(C)=CC[C@@H]2O [GYROSANOL A]	inactive	inactive	118.5	inactive	inactive	inactive	2600	inactive	inactive
C=C(CCC=C(C)C)[C@@H]1CC/C(C)=C/CCC(=C)[C@@H](O)C1	inactive	inactive	–	inactive	inactive	inactive	–	inactive	inactive
